Results reported in PubChem BioAssay (NCI).
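These data come from cells grown in 96-well plates and exposed to compound for 48 hours at five concentrations. Abbreviation: GI50, concentration required for 50% inhibition of growth. TGI is the concentration that stops growth completely.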

How the values were obtained:
Test in all cases: growth of human tumour cells (NCI), 48 h
MDA-N = test system: MDA-N
TK-10 renal = test system: TK-10 renal
PC-3 prostate = test system: PC-3 prostate
MALME-3M melanoma = test system: MALME-3M melanoma
SN12C renal = test system: SN12C renal
MCF7 breast = test system: MCF7 breast
OVCAR-8 ovarian = test system: OVCAR-8 ovarian
IGROV1 ovarian = test system: IGROV1 ovarian
KM12 colon = test system: KM12 colon
RXF 393 renal = test system: RXF 393 renal

Row | SMILES | TGI (MDA-N) [µM] | TGI (TK-10 renal) [µM] | TGI (PC-3 prostate) [µM] | TGI (MALME-3M melanoma) [µM] | TGI (SN12C renal) [µM] | TGI (MCF7 breast) [µM] | TGI (OVCAR-8 ovarian) [µM] | TGI (IGROV1 ovarian) [µM] | TGI (KM12 colon) [µM] | TGI (RXF 393 renal) [µM] | GI50 (MDA-N) [µM] | GI50 (TK-10 renal) [µM] | GI50 (PC-3 prostate) [µM] | GI50 (MALME-3M melanoma) [µM] | GI50 (SN12C renal) [µM] | GI50 (MCF7 breast) [µM] | GI50 (OVCAR-8 ovarian) [µM] | GI50 (KM12 colon) [µM] | GI50 (RXF 393 renal) [µM]
1 | C=C1C(=O)O[C@H]2C/C(C)=C/CC/C(C)=C/CC[C@@](C)(O)[C@@H](I)C[C@@H]12 | 13.3 | 23.6 | 21.1 | 22.3 | 18.1 | 25.1 | 5.74 | 10.2 | 18.5 | 13.2 | – | – | – | – | – | – | – | – | –
2 | COc1ccc2c(c1)nc1n2C(N)=Nc2ccccc2S1 | > 100 | > 100 | > 100 | > 100 | > 100 | > 100 | > 82.1 | > 100 | 34.2 | > 78.3 | – | – | – | – | – | – | – | – | –
3 | CC(C)[C@H]1NC(=O)[C@H]2N=C(O[C@@H]2C)[C@@H]2CCCN2C(=O)[C@H](Cc2ccccc2)NC(=O)[C@@H]2CSC(=N2)[C@@H](Cc2ccccc2)NC(=O)[C@@H]2CSC1=N2 | > 100 | > 100 | > 100 | > 100 | > 100 | > 100 | > 100 | > 100 | > 100 | > 100 | – | – | – | – | – | – | – | – | –
4 | Cc1cccc2nc3cccc(C(=O)NCCC[N+](C)(CCCNC(=O)c4cccc5nc6cccc(C)c6nc45)Cc4c([N+](=O)[O-])ncn4C)c3nc12 | > 1100 | > 1100 | > 1100 | 432 | > 1100 | 96.9 | > 1100 | > 1100 | > 1100 | > 1100 | 18.1 | 118 | 6.47 | 26.2 | 150 | 2.34 | 4.44 | 17.5 | 339
5 | CC(NC(=O)OCc1ccccc1)NC(=O)C(CC(=O)OC(C)(C)C)NC(=O)OC(C)(C)C (centres undefined) | > 100 | > 100 | > 100 | > 100 | > 100 | > 100 | > 100 | > 100 | > 100 | > 100 | – | – | – | – | – | – | – | – | –
6 | O=c1c2ccccc2n2nnc3ccc(NCCCNCCNCCCNc4ccc5nnn6c7ccccc7c(=O)c4c56)c1c32 | > 50 | 19 | 16.3 | > 50 | 7.49 | 6.92 | > 20.2 | 8.58 | > 22.5 | 22.6 | – | – | – | – | – | – | – | – | –
7 | O=C(OCCN1CCCCC1)C(c1ccccc1)C1(O)CCSCC1 (centres undefined) | > 100 | > 100 | > 100 | > 100 | > 100 | > 100 | > 100 | > 100 | > 100 | > 100 | – | – | – | – | – | – | – | – | –
8 | CC(C)(C)OC(=O)NC(Cc1ccc(O)cn1)C(N)=O (centres undefined) | > 100 | > 100 | > 100 | > 100 | > 100 | > 100 | > 100 | > 100 | > 100 | > 100 | – | – | – | – | – | – | – | – | –
9 | Cc1nccn1S(=O)(=O)c1ccc(Br)cc1Br | 50.1 | > 100 | > 100 | > 100 | > 100 | > 100 | > 100 | > 100 | 88.7 | 76.3 | – | – | – | – | – | – | – | – | –
10 | C1#Cc2ccccc2OCCOc2ccccc2C#Cc2ccccc2OCCOc2ccccc21 | > 100 | > 100 | > 100 | 73 | > 100 | > 100 | 28.3 | 41.5 | > 100 | 35.4 | – | – | – | – | – | – | – | – | –
11 | COc1ccc(/C=C2\CC3C4CC=C5C[C@@H](O)CC[C@]5(C)C4CC[C@]3(C)\C2=N\O)cc1OC (some centres undefined) | > 100 | > 100 | > 100 | > 100 | > 100 | > 100 | > 100 | > 100 | > 100 | > 100 | – | – | – | – | – | – | – | – | –
12 | N#Cc1c(N2CCCC2)ncn(Cc2ccccc2)c1=S | > 100 | > 100 | > 100 | > 100 | > 100 | > 100 | > 100 | > 100 | > 100 | > 100 | – | – | – | – | – | – | – | – | –
13 | C=CCN(c1cc(OCc2ccccc2)c(NC(C)=O)cc1[N+](=O)[O-])S(C)(=O)=O | > 100 | > 100 | > 100 | 73.2 | > 100 | > 100 | 50.3 | 45.4 | > 100 | 40.3 | – | – | – | – | – | – | – | – | –
14 | N/N=C1/C(=N/O)CCc2nonc21 | > 100 | > 100 | > 100 | > 100 | > 100 | > 100 | > 100 | > 100 | > 100 | > 100 | – | – | – | – | – | – | – | – | –
15 | Cc1cc(Nc2ccc(N=Nc3ccc(O)c4ncccc34)cc2)nc(C)n1 | 42.8 | 50.2 | > 69.9 | 44.6 | > 88.2 | 52.2 | 48.3 | 32 | 33.3 | 34.6 | – | – | – | – | – | – | – | – | –
